Measurements as given in patent US20050143420A1, “Methods and compositions for the treatment and management of hemoglobinopathy and anemia” (priority 2003, published 2005).

Legend:
CD34+ progenitor cells = experiment: Fetal hemoglobin induction in CD34+ cells with SCF and Epo, compared or combined with hydroxyurea and 5-azacytidine; assay type: cell-based; conditions: for fetal hemoglobin expression: flow cytometry
Protocol: FIG. 10 depicts the increase in expression of fetal hemoglobin due to 4-(Amino)-2-(2,6-dioxo(3-piperidyl))-isoindoline-1,3-dione over that induced by hydroxyurea or 5-azacytidine. Cells were cultured for six days in the presence of SCF (50 ng/ml) and Epo (2 U/ml), and either DMSO (control), 4-(Amino)-2-(2,6-dioxo(3-piperidyl))-isoindoline-1,3-dione (0.1, 1, 10 μM), 5-azacytidine (0.1, 1 μM; toxic at 10 μM) or hydroxyurea (0.1, 1, 10 μM).
As previously, CD34^+ progenitor cells were first expanded with a combination of growth factors (SCF, Flt3-L and IL-3) for 6 days, and erythroid differentiation was then induced with SCF and Epo for 6 days. During the erythroid differentiation period CD34^+ cells were cultured in the presence or absence of IMiDs™, alone or in combination with either hydroxyurea and 5-azacytidine, in order to compare the effect of IMiDs™ to these two known inducers of fetal hemoglobin synthesis. On day 6 of differentiation, the hemoglobin content of the cells was measured by flow cytometry. […] The induction of fetal hemoglobin production was, however, more pronounced with IMiD in comparison to hydroxyurea or 5-azacytidine, with a 10 fold induction in the presence of 10 μM of 4-(Amino)-2-(2,6-dioxo(3-piperidyl))-isoindoline-1,3-dione.

BM-CD34+ cells [1] = experiment: CD34+ cell differentiation with SCF, Flt3-L, GM-CSF and TNFα; flow cytometry of erythroid markers; assay type: cell-based; conditions: 0.01-100 μM, six days of culture
Protocol: (§1) BM-CD34^+ cells were obtained from Cambrex (East Rutherford, N.J.) and cultured in Iscove's MDM with BIT 95000 (StemCell Technologies, UK) in the presence of stem cell factor (SCF), Flt3-L, granulocyte macrophage-colony stimulating factor (GM-CSF) and TNFα for 6 days. To study the effect of 4-(Amino)-2-(2,6-dioxo(3-piperidyl))-isoindoline-1,3-dione on the generation of dendritic cells, CD34^+ progenitor cells were cultured with or without 4-(Amino)-2-(2,6-dioxo(3-piperidyl))-isoindoline-1,3-dione for a period of 6 days. Phenotypic characterization of the cells for erythroid markers (CD36, CD71, glycophorin A and fetal hemoglobin) was established by flow cytometry after six days of culture. Gene expression was monitored by microarray analysis at day 1, day 3 and day 6 of CD34^+ differentiation (FIG. 1).

BM-CD34+ progenitors = experiment: Erythroid differentiation of expanded CD34+ cells with SCF and Epo; flow cytometry and cell counts; assay type: cell-based; conditions: 6 days
Protocol: Differentiation of bone marrow (BM) CD34^+ hematopoietic progenitor cells: BM-CD34^+ progenitors were obtained from Cambrex and cultured in Iscove's MDM with BIT 95000 (serum substitute; StemCell technologies) in the presence of growth factors. During the first 6 days CD34^+ cells were expanded with SCF (100 ng/ml), Flt3-L (100 ng/ml) and IL-3 (20 ng/ml), and then differentiated toward the erythroid lineage by culture in the presence of SCF (50 ng/ml), and Epo (2U or 4U/ml) for 6 days. To study the effect of IMiDs™, CD34^+ progenitors cells were differentiated for a period of 6 days in the presence or absence of 4-(Amino)-2-(2,6-dioxo(3-piperidyl))-isoindoline-1,3-dione or 3-(4-amino-1-oxo-1,3-dihydroisoindol-2-yl)-piperidine-2,6-dione. (FIG. 6)
Flow cytometry: Surface antigen expression was analyzed by flow cytometry (FACScan, Coulter) after 6 days of culture. Cells were processed for double staining (30 min at 4° C.) at day 6 using FITC and PE conjugated monoclonal antibodies (mAbs). Antibodies used were: CD34-PE, CD36-FITC, CD71-FITC and Glycophorin A-PE, all from BD Pharmingen (San Diego, Calif.). After 6 days of culture, cells were washed with phosphate-buffered saline (PBS), fixed with 2% paraformaldehyde, permeabilized with cytopermeafix (BD Pharmingen) and stained with HbF-PE (BD Pharmingen, San Diego, Calif.), Hbε-FITC (Cortex Biochem, San Leandro, Calif.) mAbs and HbA-FITC (Perkin Elmer) and analyzed by flow cytometry (FACScan, Coulter or FCASAria, BD Pharmingen).

[2] = Cardiovascular and respiratory function in anesthetized dogs; assay type: in vivo, Beagle dogs
Protocol: The effects of 3-(4-amino-1-oxo-1,3-dihydro-isoindol-2-yl)-piperidine-2,6-dione on cardiovascular and respiratory function are investigated in anesthetized dogs. Two groups of Beagle dogs (2/sex/group) are used. One group receives three doses of vehicle only and the other receives three ascending doses of 3-(4-amino-1-oxo-1,3-dihydro-isoindol-2-yl)-piperidine-2,6-dione (2, 10, and 20 mg/kg). In all cases, doses of 3-(4-amino-1-oxo-1,3-dihydro-isoindol-2-yl)-piperidine-2,6-dione or vehicle are successively administered via infusion through the jugular vein separated by intervals of at least 30 minutes.

BM-CD34+ cells [3] = experiment: CD34+ cell differentiation with SCF, Flt3-L, GM-CSF and TNFα; microarray gene expression; assay type: cell-based
Protocol: as §1
RNA purification and microarray analysis. Total RNA was isolated from CD34^+ cells using RNAeasy (Qiagen). Affymetrix U133A gene chips were used for gene expression analysis. Briefly, double-stranded cDNA was synthesized using 5 μg of total RNA. Biotin-labeled cRNA was synthesized using MessageAmp aRNA kit (Ambion), 15 μg of cRNA was fragmented and hybridized to each array. The above procedures were done twice for each RNA sample to obtain replicate biotin-labeled probes. The results from the replicate chips were averaged for calculation of the fold differences.

STAT5 = experiment: Epo-induced STAT5 phosphorylation in UT-7 cells; assay type: cell-based, human; conditions: 10 μM, 45 min pre-incubation, Epo 10 U/ml for 10 minutes
Excerpt: To further characterize the synergy of Epo and IMiDs™ on erythroid cells, we have performed signaling experiments in a UT-7 cell line, in particular, to determine the effect if IMiDs on the expression of STAT5, which is known to be activated upon the binding Epo to the erythropoietin receptor (EpoR). UT-7 is a human leukemia cell line absolutely dependent upon erythropoietin for proliferation, and was isolated from a patient with acute myeloid leukemia (AML M7). The level of EpoR expression in these cells is around 60%.
To study the role of IMiDs™ in Epo signaling, we stimulated UT-7 cells with Epo in the presence or absence of 4-(Amino)-2-(2,6-dioxo(3-piperidyl))-isoindoline- 1,3-dione as follows. UT-7 cells were expended in RPMI medium with 10% FBS and GM-CSF (5 ng/ml). The cells were serum and growth factor starved overnight, then pre-incubated for 45 minutes with 10 μM of 4-(Amino)-2-(2,6-dioxo(3-piperidyl))-isoindoline-1,3-dione or DMSO control, and stimulated with Epo (10 U/ml) for 10 minutes. 4-(Amino)-2-(2,6-dioxo(3-piperidyl))-isoindoline-1,3-dione increased Epo-induced STAT5 (Tyr694) phosphorylation by 2 fold (FIG. 12). This effect was detected within 10 minutes of stimulation with Epo.

For `NC(=O)NO` [Hydroxyurea, hydroxyurea, reference compound], the fetal hemoglobin expression (CD34+ progenitor cells; day 6 of differentiation) was “increased fetal hemoglobin expression”.
For `Nc1ncn([C@@H]2O[C@H](CO)[C@@H](O)[C@H]2O)c(=O)n1` [5-azacytidine, reference compound], the “toxicity to cultured CD34+ cells” value (CD34+ progenitor cells; 10 μM) was “toxic” and the fetal hemoglobin expression (CD34+ progenitor cells; day 6 of differentiation) was “increased fetal hemoglobin expression”.
In the case of `Nc1cccc2c1CN(C1CCC(=O)NC1=O)C2=O` (stereo not shown) [3-(4-amino-1-oxo-1,3-dihydroisoindol-2-yl)-piperidine-2,6-dione], the “expression of fetal hemoglobin” value (BM-CD34+ cells [1]) is reported as “increased in a dose-dependent manner”, the “expression of glycophorin A” value (BM-CD34+ cells [1]) is reported as “increased in a dose-dependent manner” and the “induction of hemoglobin F in erythroid precursors” value (BM-CD34+ progenitors) is reported as “potent inducers of hemoglobin F”. For the same molecule, the “cardiovascular and respiratory changes” value ([2]; 2, 10 and 20 mg/kg by jugular vein infusion, vs vehicle) was “minimal at all doses”, the “deviations in femoral blood flow, respiratory parameters, and Qtc interval” value ([2]; common to control and treated groups) was “not considered treatment-related” and the “duration of the arterial blood pressure increase” value ([2]; low dose, not seen at higher doses) was “approximately 15 minutes”. The arterial blood pressure ([2]; low dose, small increase from 94 mmHg) was 101 mmHg.
In the case of `Nc1cccc2c1C(=O)N(C1CCC(=O)NC1=O)C2=O` (stereo not shown) [4-(Amino)-2-(2,6-dioxo(3-piperidyl))-isoindoline-1,3-dione], the “expression of genes encoding glycophorin B, rhesus blood group associated glycoprotein, Kell blood group precursor, EDRF/AHSP, erythroid Kruppel-like transcription factor” value (BM-CD34+ cells [3]; SCF, Flt3-L, GM-CSF and TNFα) is reported as “upregulated”, the “gene expression profile of erythroid-specific genes” value (BM-CD34+ cells [3]; SCF, Flt3-L, GM-CSF and TNFα) is reported as “upregulated” and the “increase of embryonic hemoglobin ε gene expression” value (BM-CD34+ cells [3]; day 6 of CD34+ differentiation, vs DMSO) is reported as 18 fold. For the same molecule, the “expression of fetal hemoglobin” value (BM-CD34+ cells [1]) was “increased in a dose-dependent manner”, the “expression of glycophorin A” value (BM-CD34+ cells [1]) was “increased in a dose-dependent manner” and the “adult hemoglobin (HbA) expression” value (BM-CD34+ progenitors) was “decrease”. For the same molecule, the “induction of hemoglobin F in erythroid precursors” value (BM-CD34+ progenitors) was “potent inducers of hemoglobin F”, the “cells expressing fetal hemoglobin” value (BM-CD34+ progenitors; 0.001-10 μM, vs DMSO) was “increase” and the “expression of glycophorin A” value (BM-CD34+ progenitors; FACS) was “slight decrease”. For the same molecule, the “induction of fetal hemoglobin production” value (CD34+ progenitor cells; 10 μM, day 6 of differentiation) was 10 fold, the “fetal hemoglobin expression in combination with hydroxyurea” value (CD34+ progenitor cells; combination with hydroxyurea, six days, SCF and Epo) was “striking synergy” and the “increase of Epo-induced STAT5 (Tyr694) phosphorylation” value (STAT5) was 2 fold.
